# Measured values from patent US9174935B2, “Transition metal complexes of bis[thiohydrazide amide] compounds” (Synta Pharmaceuticals Corp., priority 2008, dated 2015).
# How the values were obtained:
# M14 melanoma cells = experiment: Cytotoxicity in confluent M14 cells, cell viability by CCK8 assay; type: cell-based; details: Homo sapiens, M14, 48 h
# Method: M14 melanoma cells were seeded at 50,000 cells per well of 96-well plate in 100 μl of Dulbecco's minimum essential medium (DMEM) supplemented with 10% fetal bovine serum. Cells were cultured at 37° C. under 5% CO2-95% air. After 16 hours of incubation, the test compound was added to the cell culture. The compound was first diluted in 100% dimethyl sulfoxide (DMSO) at 400-fold of final concentrations actually used in the assay. The DMSO solution was next diluted 20 fold with the culture medium, and then finally added to the assay wells at another 20-fold dilution. The assay medium included the test compound with concentrations as indicated with 0.25% DMSO. Cell viability was measured with a CCK8 assay (as described in the Technical Manual for Cell Counting Kit-8, Product #CK04-11, CK04-13 and CK04-20, Dojindo Molecular Technologies, Inc. MD; Tantular, I. S. et al. Tropical Medicine and International Health, 8(6), 569-574, 2003) in the last 15 min after a 48 h incubation with the test compound. Each bar of the figure expresses average percent inhibition against vehicle (0.25% DMSO) control (n=4). Error bars indicate standard deviation.
# [1] = test system: stage IV metastatic melanoma; details: in combination with paclitaxel, relative to patients treated with paclitaxel alone; cited from earlier work
Compound,IC50 (M14 melanoma cells) [µM],time to progression [1]
CN(NC(=O)CC(=O)NN(C)C(=S)c1ccccc1)C(=S)c1ccccc1 [A],> 12.5,–
CN(NC(=O)CC(=O)NN(C)C(=S)c1ccccc1)C(=S)c1ccccc1 [N-malonyl-bis(N′-methyl-N′-thiobenzoylhydrazide)],–,increase the time to progression
